What was measured:
Assay in all cases: relative viability (nuclei count vs DMSO), 5 days (fraction); higher = more cells survive
Bexarotene + Pictilisib = compound: C=C(c1ccc(C(=O)O)cc1)c1cc2c(cc1C)C(C)(C)CCC2(C)C [Bexarotene] + CS(=O)(=O)N1CCN(Cc2cc3nc(-c4cccc5[nH]ncc45)nc(N4CCOCC4)c3s2)CC1 [Pictilisib] (partner 1 µM)
Procedure, shortened: (§1)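 Nuclei were stained with Hoechst during a one-step fixation (final 0.05% Triton X-100, 1% formaldehyde, 1 ug/ml Hoechst) carried out 5 days after dosing, then counted on 4× images. The cells, lung cancer lines in 1536-well plates, had been dosed by pin tool the day after seeding with one drug alone or a fixed anchor-drug dose plus five library-drug doses (not always all listed) in √10 steps. Relative viability is the nuclei count in treated wells divided by that in vehicle wells, and each value is the median of duplicate plates.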

Bexarotene + Navitoclax = compound: C=C(c1ccc(C(=O)O)cc1)c1cc2c(cc1C)C(C)(C)CCC2(C)C [Bexarotene] + CC1(C)CCC(c2ccc(Cl)cc2)=C(CN2CCN(c3ccc(C(=O)NS(=O)(=O)c4ccc(N[C@H](CCN5CCOCC5)CSc5ccccc5)c(S(=O)(=O)C(F)(F)F)c4)cc3)CC2)C1 [Navitoclax] (partner 0.5 µM)
Procedure, shortened: as §1

Bexarotene + Bortezomib = compound: C=C(c1ccc(C(=O)O)cc1)c1cc2c(cc1C)C(C)(C)CCC2(C)C [Bexarotene] + CC(C)C[C@H](NC(=O)[C@H](Cc1ccccc1)NC(=O)c1cnccn1)B(O)O [Bortezomib] (partner 0.002 µM)
Procedure, shortened: as §1

Bexarotene + Linsitinib = compound: C=C(c1ccc(C(=O)O)cc1)c1cc2c(cc1C)C(C)(C)CCC2(C)C [Bexarotene] + C[C@]1(O)C[C@@H](c2nc(-c3ccc4ccc(-c5ccccc5)nc4c3)c3c(N)nccn32)C1 [Linsitinib] (partner 1 µM)
Procedure, shortened: as §1

Bexarotene + Olaparib = compound: C=C(c1ccc(C(=O)O)cc1)c1cc2c(cc1C)C(C)(C)CCC2(C)C [Bexarotene] + O=C(c1cc(Cc2n[nH]c(=O)c3ccccc23)ccc1F)N1CCN(C(=O)C2CC2)CC1 [Olaparib] (partner 8 µM)
Procedure, shortened: as §1

Bexarotene + Crizotinib = compound: C=C(c1ccc(C(=O)O)cc1)c1cc2c(cc1C)C(C)(C)CCC2(C)C [Bexarotene] + C[C@@H](Oc1cc(-c2cnn(C3CCNCC3)c2)cnc1N)c1c(Cl)ccc(F)c1Cl [Crizotinib] (partner 1 µM)
Procedure, shortened: as §1

Bexarotene + Foretinib = compound: C=C(c1ccc(C(=O)O)cc1)c1cc2c(cc1C)C(C)(C)CCC2(C)C [Bexarotene] + COc1cc2c(Oc3ccc(NC(=O)C4(C(=O)Nc5ccc(F)cc5)CC4)cc3F)ccnc2cc1OCCCN1CCOCC1 [Foretinib] (partner 0.25 µM)
Procedure, shortened: as §1

Bexarotene + Alpelisib = compound: C=C(c1ccc(C(=O)O)cc1)c1cc2c(cc1C)C(C)(C)CCC2(C)C [Bexarotene] + Cc1nc(NC(=O)N2CCC[C@H]2C(N)=O)sc1-c1ccnc(C(C)(C)C(F)(F)F)c1 [Alpelisib] (partner 2 µM)
Procedure, shortened: as §1

Bexarotene + Lapatinib = compound: C=C(c1ccc(C(=O)O)cc1)c1cc2c(cc1C)C(C)(C)CCC2(C)C [Bexarotene] + CS(=O)(=O)CCNCc1ccc(-c2ccc3ncnc(Nc4ccc(OCc5cccc(F)c5)c(Cl)c4)c3c2)o1 [Lapatinib] (partner 2 µM)
Procedure, shortened: as §1

Bexarotene = compound: C=C(c1ccc(C(=O)O)cc1)c1cc2c(cc1C)C(C)(C)CCC2(C)C [Bexarotene]
Procedure, shortened: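 Five library-drug doses spaced by √10 were pinned onto vehicle-anchored 1536-well plates of lung cancer cell lines that had been kept overnight at 37 °C. Cells went 5 days without medium change, then were fixed, permeabilised and Hoechst-stained together, imaged at 4× and counted by MetaXpress. Viability is the ratio of treated-well to vehicle-well nuclei, taken as a median over plates. Plates required control CV below 25% and at least one doubling.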

Work on EBC-1 yielded a relative viability (Bexarotene + Pictilisib; first compound 0.08 µM) of 0.395, a relative viability (Bexarotene + Pictilisib; first compound 0.253 µM) of 0.481 and a relative viability (Bexarotene + Pictilisib; first compound 0.8 µM) of 0.476. The relative viability (Bexarotene + Pictilisib; first compound 2.53 µM) was 0.474, the relative viability (Bexarotene + Pictilisib; first compound 8 µM) was 0.475 and the relative viability (Bexarotene + Navitoclax; first compound 0.08 µM) was 0.43. It also gave a relative viability (Bexarotene + Navitoclax; first compound 0.253 µM) of 0.401, a relative viability (Bexarotene + Navitoclax; first compound 0.8 µM) of 0.333 and a relative viability (Bexarotene + Navitoclax; first compound 2.53 µM) of 0.344. For the same cell line, the relative viability (Bexarotene + Navitoclax; first compound 8 µM) was 0.369, the relative viability (Bexarotene + Bortezomib; first compound 0.08 µM) was 0.63 and the relative viability (Bexarotene + Bortezomib; first compound 0.253 µM) was 0.541. The relative viability (Bexarotene + Bortezomib; first compound 0.8 µM) was 0.415, the relative viability (Bexarotene + Bortezomib; first compound 2.53 µM) was 0.555 and the relative viability (Bexarotene + Bortezomib; first compound 8 µM) was 0.442. The relative viability (Bexarotene + Linsitinib; first compound 0.08 µM) was 0.954, the relative viability (Bexarotene + Linsitinib; first compound 0.253 µM) was 0.89 and the relative viability (Bexarotene + Linsitinib; first compound 0.8 µM) was 0.783. The relative viability (Bexarotene + Linsitinib; first compound 2.53 µM) was 0.929, the relative viability (Bexarotene + Linsitinib; first compound 8 µM) was 1.06 and the relative viability (Bexarotene + Olaparib; first compound 0.08 µM) was 0.771. The relative viability (Bexarotene + Olaparib; first compound 0.253 µM) was 0.713, the relative viability (Bexarotene + Olaparib; first compound 0.8 µM) was 0.588 and the relative viability (Bexarotene + Olaparib; first compound 2.53 µM) was 0.701. The relative viability (Bexarotene + Olaparib; first compound 8 µM) was 0.715, the relative viability (Bexarotene + Crizotinib; first compound 0.08 µM) was 0.196 and the relative viability (Bexarotene + Crizotinib; first compound 0.253 µM) was 0.212. The relative viability (Bexarotene + Crizotinib; first compound 0.8 µM) was 0.237, the relative viability (Bexarotene + Crizotinib; first compound 2.53 µM) was 0.217 and the relative viability (Bexarotene + Crizotinib; first compound 8 µM) was 0.192. For the same cell line, the relative viability (Bexarotene + Foretinib; first compound 0.08 µM) was 0.111, the relative viability (Bexarotene + Foretinib; first compound 0.253 µM) was 0.124 and the relative viability (Bexarotene + Foretinib; first compound 0.8 µM) was 0.101. It also gave a relative viability (Bexarotene + Foretinib; first compound 2.53 µM) of 0.129, a relative viability (Bexarotene + Foretinib; first compound 8 µM) of 0.112 and a relative viability (Bexarotene + Alpelisib; first compound 0.08 µM) of 1.22. It also gave a relative viability (Bexarotene + Alpelisib; first compound 0.253 µM) of 0.989, a relative viability (Bexarotene + Alpelisib; first compound 0.8 µM) of 0.756 and a relative viability (Bexarotene + Alpelisib; first compound 2.53 µM) of 0.89. It also gave a relative viability (Bexarotene + Alpelisib; first compound 8 µM) of 0.868, a relative viability (Bexarotene + Lapatinib; first compound 0.08 µM) of 0.231 and a relative viability (Bexarotene + Lapatinib; first compound 0.253 µM) of 0.232. The relative viability (Bexarotene + Lapatinib; first compound 0.8 µM) was 0.22, the relative viability (Bexarotene + Lapatinib; first compound 2.53 µM) was 0.192 and the relative viability (Bexarotene + Lapatinib; first compound 8 µM) was 0.209. It also gave a relative viability (Bexarotene; 0.08 µM) of 0.901, a relative viability (Bexarotene; 0.253 µM) of 1.03 and a relative viability (Bexarotene; 0.8 µM) of 0.971. For the same cell line, the relative viability (Bexarotene; 2.53 µM) was 1.02 and the relative viability (Bexarotene; 8 µM) was 1.08.

From the supplement of paper PMC10307832
